PubChem BioAssay AID248 (DTP/NCI, 2004)
Values joined by “and” are separate entries in the source; they are usually repeats but may differ in a detail not shown here. Equal values may be shown once. Toxic doses and inconclusive results are not listed. Cut-off read from the data, not from the text of the source: active = T/C of 150% or more; inactive = T/C below 125%.

Test system: L1210 leukemia ip in BDF1 mice, survival T/C
Assay: NCI In Vivo Anticancer Drug Screen. Data for tumor model L1210 Leukemia (intraperitoneal) in B6D2F1 (BDF1) mice
Conditions: endpoint: mean survival time, higher = longer survival
Summary of the method: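 Tumor cells were implanted, animals were treated, and survival was followed. The result divides the treated measurement by the vehicle-control measurement.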

[1] = dose: 12.5 mg/kg/injection, schedule: Q01DX009 (ip), vehicle: saline with Tween-80
[2] = dose: 25.0 mg/kg/injection, schedule: Q01DX009 (ip), vehicle: saline with Tween-80
[3] = dose: 100.0 mg/kg/injection, schedule: Q04DX002 (ip), vehicle: Klucel (hydroxypropylcellulose) (HPC)
[4] = dose: 200.0 mg/kg/injection, schedule: Q04DX002 (ip), vehicle: Klucel (hydroxypropylcellulose) (HPC)
[5] = dose: 400.0 mg/kg/injection, schedule: Q04DX002 (ip), vehicle: Klucel (hydroxypropylcellulose) (HPC)
[6] = dose: 6.25 mg/kg/injection, schedule: Q01DX009 (ip), vehicle: Klucel (hydroxypropylcellulose) (HPC)
[7] = dose: 12.5 mg/kg/injection, schedule: Q01DX009 (ip), vehicle: Klucel (hydroxypropylcellulose) (HPC)
[8] = dose: 25.0 mg/kg/injection, schedule: Q01DX009 (ip), vehicle: Klucel (hydroxypropylcellulose) (HPC)
[9] = dose: 25.0 mg/kg/injection, schedule: Q04DX003 (ip), vehicle: Klucel (hydroxypropylcellulose) (HPC)
[10] = dose: 50.0 mg/kg/injection, schedule: Q04DX003 (ip), vehicle: Klucel (hydroxypropylcellulose) (HPC)
[11] = dose: 100.0 mg/kg/injection, schedule: Q01DX001 (ip), vehicle: carboxymethylcellulose (CMC)
[12] = dose: 200.0 mg/kg/injection, schedule: Q01DX001 (ip), vehicle: carboxymethylcellulose (CMC)
[13] = dose: 400.0 mg/kg/injection, schedule: Q01DX001 (ip), vehicle: carboxymethylcellulose (CMC)
[14] = dose: 100.0 mg/kg/injection, schedule: Q04DX003 (ip), vehicle: saline
[15] = dose: 200.0 mg/kg/injection, schedule: Q04DX003 (ip), vehicle: saline
[16] = dose: 100.0 mg/kg/injection, schedule: Q01DX001 (ip), vehicle: saline
[17] = dose: 200.0 mg/kg/injection, schedule: Q01DX001 (ip), vehicle: saline
[18] = dose: 50.0 mg/kg/injection, schedule: Q01DX009 (ip), vehicle: saline with Tween-80
[19] = dose: 100.0 mg/kg/injection, schedule: Q01DX009 (ip), vehicle: saline with Tween-80

Measured: T/C

CC(=N)c1ccc(C)cc1
inactive: dose: 6.25 mg/kg/injection, schedule: Q01DX009 (ip), vehicle: saline with Tween-80 94 % of control | [1] 96 % of control | [2] 102 % of control

O=C(Nc1ccccc1)c1cc(Cl)cc(Cl)c1Br
inactive: dose: 100.0 mg/kg/injection, schedule: Q01DX001 (ip), vehicle: other 96 % of control | dose: 200.0 mg/kg/injection, schedule: Q01DX001 (ip), vehicle: other 96 % of control | dose: 400.0 mg/kg/injection, schedule: Q01DX001 (ip), vehicle: other 95 % of control

CC(=O)c1cccc(NC(=O)Nc2nccs2)c1
inactive: dose: 100.0 mg/kg/injection, schedule: Q01DX001 (ip), vehicle: Klucel (hydroxypropylcellulose) (HPC) 100 % of control | dose: 100.0 mg/kg/injection, schedule: Q01DX009 (ip), vehicle: Klucel (hydroxypropylcellulose) (HPC) 101 % of control and 92 % of control | [3] 101 % of control and 91 % of control | dose: 100.0 mg/kg/injection, schedule: Q04DX003 (ip), vehicle: Klucel (hydroxypropylcellulose) (HPC) 101 % of control | dose: 200.0 mg/kg/injection, schedule: Q01DX001 (ip), vehicle: Klucel (hydroxypropylcellulose) (HPC) 104 % of control | dose: 200.0 mg/kg/injection, schedule: Q01DX009 (ip), vehicle: Klucel (hydroxypropylcellulose) (HPC) 104 % of control | [4] 104 % of control and 109 % of control | dose: 200.0 mg/kg/injection, schedule: Q04DX003 (ip), vehicle: Klucel (hydroxypropylcellulose) (HPC) 103 % of control | dose: 400.0 mg/kg/injection, schedule: Q01DX001 (ip), vehicle: Klucel (hydroxypropylcellulose) (HPC) 96 % of control | dose: 400.0 mg/kg/injection, schedule: Q01DX009 (ip), vehicle: Klucel (hydroxypropylcellulose) (HPC) 109 % of control and 88 % of control | [5] 96 % of control | dose: 400.0 mg/kg/injection, schedule: Q04DX003 (ip), vehicle: Klucel (hydroxypropylcellulose) (HPC) 96 % of control

COc1ccc(/C=N/n2c3ccccc3c3ccccc32)cc1OCCN(C)C
inactive: dose: 3.12 mg/kg/injection, schedule: Q01DX009 (ip), vehicle: Klucel (hydroxypropylcellulose) (HPC) 96 % of control | [6] 101 % of control | [7] 97 % of control | [8] 102 % of control | [9] 98 % of control | [10] 96 % of control

CCOC(=O)C1CSC(C)(C(=O)OCC)N1 (centres undefined)
inactive: [11] 100 % of control | [12] 96 % of control | [13] 105 % of control

O=C(Nc1cccc(Cl)c1)Nc1cccc(C(F)(F)F)c1
inactive: dose: 15.0 mg/kg/injection, schedule: Q01DX015 (ip), vehicle: carboxymethylcellulose (CMC) 103 % of control | dose: 30.0 mg/kg/injection, schedule: Q01DX015 (ip), vehicle: carboxymethylcellulose (CMC) 103 % of control | dose: 60.0 mg/kg/injection, schedule: Q01DX015 (ip), vehicle: carboxymethylcellulose (CMC) 100 % of control | dose: 120.0 mg/kg/injection, schedule: Q01DX015 (ip), vehicle: carboxymethylcellulose (CMC) 103 % of control

COC1OC(CO)C(O)C(N)C1O (centres undefined)
inactive: [14] 109 % of control | [15] 98 % of control

ClCCOc1ccccc1
inactive: [16] 95 % of control | [17] 101 % of control

N#CCCSc1ccccc1
inactive: [2] 112 % of control | [18] 91 % of control | [19] 100 % of control and 105 % of control | dose: 100.0 mg/kg/injection, schedule: Q04DX002 (ip), vehicle: saline with Tween-80 86 % of control | dose: 200.0 mg/kg/injection, schedule: Q04DX002 (ip), vehicle: saline with Tween-80 100 % of control

CC12CCC(C1)C(C)(C)C2OC(=O)c1ccccc1C(=O)O (centres undefined)
inactive: dose: 50.0 mg/kg/injection, schedule: Q01DX001 (ip), vehicle: carboxymethylcellulose (CMC) 103 % of control | [11] 113 % of control | [12] 102 % of control | [13] 103 % of control

CCCCC/C=C/C/C=C/CCCCCCCC(=O)N1CCOCC1
inactive: dose: 100.0 mg/kg/injection, schedule: Q01DX001 (ip), vehicle: saline with Tween-80 94 % of control | dose: 200.0 mg/kg/injection, schedule: Q01DX001 (ip), vehicle: saline with Tween-80 96 % of control | dose: 400.0 mg/kg/injection, schedule: Q01DX001 (ip), vehicle: saline with Tween-80 97 % of control

Nc1nc(N)c2cc(CNc3ccc(C(=O)NC(CC(=O)O)C(=O)O)c(Cl)c3)ccc2n1 (centres undefined)
active: dose: 1.8 mg/kg/injection, schedule: Q01DX009 (ip), vehicle: saline with Tween-80 152 % of control | dose: 1.8 mg/kg/injection, schedule: Q01DX009 (ip), vehicle: saline 157 % of control | dose: 2.7 mg/kg/injection, schedule: Q01DX009 (ip), vehicle: saline with Tween-80 178 % of control | dose: 2.7 mg/kg/injection, schedule: Q01DX009 (ip), vehicle: saline 162 % of control and 180 % of control
inactive: dose: 9.0 mg/kg/injection, schedule: Q01DX009 (ip), vehicle: saline 92 % of control | dose: 30.0 micrograms/kg/injection, schedule: Q01DX009 (ip), vehicle: saline with Tween-80 95 % of control | dose: 44.0 micrograms/kg/injection, schedule: Q01DX009 (ip), vehicle: saline with Tween-80 107 % of control | dose: 67.0 micrograms/kg/injection, schedule: Q01DX009 (ip), vehicle: saline with Tween-80 95 % of control | dose: 100.0 micrograms/kg/injection, schedule: Q01DX009 (ip), vehicle: saline with Tween-80 95 % of control

CCOC(=O)/C(C#N)=C(/C)C1CC1
inactive: [6] 95 % of control | [7] 105 % of control | [8] 97 % of control | dose: 75.0 mg/kg/injection, schedule: Q01DX001 (ip), vehicle: carboxymethylcellulose (CMC) 95 % of control | dose: 150.0 mg/kg/injection, schedule: Q01DX001 (ip), vehicle: carboxymethylcellulose (CMC) 105 % of control

Cc1cccc(NC(=O)COc2ccc(C)cc2C)c1
inactive: [3] 103 % of control | [4] 92 % of control | [5] 95 % of control

N#Cc1cccc(C[P+](c2ccccc2)(c2ccccc2)c2ccccc2)c1
inactive: [7] 100 % of control | dose: 12.5 mg/kg/injection, schedule: Q04DX003 (ip), vehicle: Klucel (hydroxypropylcellulose) (HPC) 111 % of control | [8] 102 % of control | [9] 111 % of control | [10] 100 % of control

c1cc2nnc3cccc4nnc(c1)c2c34
inactive: [16] 102 % of control | [17] 107 % of control | dose: 400.0 mg/kg/injection, schedule: Q01DX001 (ip), vehicle: saline 103 % of control

N#CC(N)c1ccccc1 (centres undefined)
inactive: dose: 75.0 mg/kg/injection, schedule: Q01DX001 (ip), vehicle: saline 103 % of control

N=C(N)SCCCN
inactive: dose: 100.0 mg/kg/injection, schedule: Q01DX009 (ip), vehicle: saline 108 % of control | [14] 101 % of control | [15] 100 % of control

CCO/C(C)=N/c1n[n+]([O-])ccc1C
inactive: dose: 40.0 mg/kg/injection, schedule: Q04DX002 (ip), vehicle: saline 104 % of control | dose: 80.0 mg/kg/injection, schedule: Q04DX002 (ip), vehicle: saline 96 % of control | dose: 160.0 mg/kg/injection, schedule: Q04DX002 (ip), vehicle: saline 104 % of control

O=C(Nc1ccccc1)OCC(CN1CCCCC1)OC(=O)Nc1ccccc1 (centres undefined)
inactive: [1] 97 % of control | [2] 99 % of control | [18] 99 % of control | [19] 86 % of control | dose: 100.0 mg/kg/injection, schedule: Q04DX003 (ip), vehicle: saline with Tween-80 98 % of control | dose: 200.0 mg/kg/injection, schedule: Q01DX009 (ip), vehicle: saline with Tween-80 91 % of control | dose: 200.0 mg/kg/injection, schedule: Q04DX003 (ip), vehicle: saline with Tween-80 90 % of control

O=C(O)C1=NN(c2ccc([N+](=O)[O-])cc2)C(=O)C1
inactive: dose: 100.0 mg/kg/injection, schedule: Q04DX003 (ip), vehicle: other 106 % of control | dose: 200.0 mg/kg/injection, schedule: Q04DX003 (ip), vehicle: other 105 % of control | dose: 400.0 mg/kg/injection, schedule: Q04DX003 (ip), vehicle: other 106 % of control
